# Test results from ChEMBL document CHEMBL3044631, “Synthesis of 2-[4,5-dimethyl-1-(phenylamino)-1H-imidazol-2-ylthio]-N-(thiazole-2-yl)acetamide derivatives and their anticancer activities” (2013).
# Tests used:
# Format in all cases: functional
# [1] = test system: NCI-H522; experiment: Anticancer activity against Homo sapiens (human) NCI-H522 cells after 48 hr by SRB assay; settings: NCI-H522, 48 h
# [2] = test system: IGROV-1; experiment: Anticancer activity against Homo sapiens (human) IGROV1 cells after 48 hr by SRB assay; settings: IGROV-1, 48 h
# [3] = test system: A549; experiment: Anticancer activity against Homo sapiens (human) A549/ATCC cells assessed as cell growth promotion at 10 uM after 48 hr by SRB assay
# [4] = test system: OVCAR-5; experiment: Anticancer activity against Homo sapiens (human) OVCAR5 cells after 48 hr by SRB assay; settings: OVCAR-5, 48 h
# [5] = test system: SF-268; experiment: Anticancer activity against Homo sapiens (human) SF268 cells assessed as cell growth promotion at 10 uM after 48 hr by SRB assay
# [6] = test system: SK-MEL-28; experiment: Anticancer activity against Homo sapiens (human) SK-MEL-28 cells assessed as cell growth promotion at 10 uM after 48 hr by SRB assay
# [7] = test system: SK-MEL-5; experiment: Anticancer activity against Homo sapiens (human) SK-MEL-5 cells assessed as cell growth promotion at 10 uM after 48 hr by SRB assay
# [8] = test system: 786-0; experiment: Anticancer activity against Homo sapiens (human) 786-0 cells assessed as cell growth promotion at 10 uM after 48 hr by SRB assay
# [9] = test system: A498; experiment: Anticancer activity against Homo sapiens (human) A498 cells after 48 hr by SRB assay; settings: A498, 48 h
# [10] = test system: OVCAR-3; experiment: Anticancer activity against Homo sapiens (human) OVCAR3 cells assessed as cell growth promotion at 10 uM after 48 hr by SRB assay
# [11] = test system: UACC-257; experiment: Anticancer activity against Homo sapiens (human) UACC257 cells after 48 hr by SRB assay; settings: UACC-257, 48 h
# [12] = test system: UACC-62; experiment: Anticancer activity against Homo sapiens (human) UACC62 cells after 48 hr by SRB assay; settings: UACC-62, 48 h
# [13] = test system: EKVX; experiment: Anticancer activity against Homo sapiens (human) EKVX cells assessed as cell growth promotion at 10 uM after 48 hr by SRB assay
# [14] = test system: LOX IMVI; experiment: Anticancer activity against Homo sapiens (human) LOXIMVI cells after 48 hr by SRB assay
# [15] = test system: M14; experiment: Anticancer activity against Homo sapiens (human) M14 cells after 48 hr by SRB assay; settings: M14, 48 h
# [16] = test system: HOP-62; experiment: Anticancer activity against Homo sapiens (human) HOP62 cells after 48 hr by SRB assay; settings: HOP-62, 48 h
# [17] = test system: KM12; experiment: Anticancer activity against Homo sapiens (human) KM12 cells assessed as cell growth promotion at 10 uM after 48 hr by SRB assay
# [18] = test system: OVCAR-8; experiment: Anticancer activity against Homo sapiens (human) OVCAR8 cells assessed as cell growth promotion at 10 uM after 48 hr by SRB assay
# [19] = test system: NCI-H23; experiment: Anticancer activity against Homo sapiens (human) NCI-H23 cells assessed as cell growth promotion at 10 uM after 48 hr by SRB assay
# [20] = test system: UACC-62; experiment: Anticancer activity against Homo sapiens (human) UACC62 cells assessed as cell growth promotion at 10 uM after 48 hr by SRB assay
# [21] = test system: NCI-H460; experiment: Anticancer activity against Homo sapiens (human) NCI-H460 cells assessed as cell growth promotion at 10 uM after 48 hr by SRB assay
# [22] = test system: MDA-MB-435; experiment: Anticancer activity against Homo sapiens (human) MDA-MB-435 cells after 48 hr by SRB assay; settings: MDA-MB-435, 48 h
# [23] = test system: TK-10; experiment: Anticancer activity against Homo sapiens (human) TK10 cells after 48 hr by SRB assay; settings: TK-10, 48 h
# [24] = test system: MDA-MB-231; experiment: Anticancer activity against Homo sapiens (human) MDA-MB-231/ATCC cells after 48 hr by SRB assay; settings: MDA-MB-231, 48 h
# [25] = test system: U-251; experiment: Anticancer activity against Homo sapiens (human) U251 cells assessed as cell growth promotion at 10 uM after 48 hr by SRB assay
# [26] = test system: ACHN; experiment: Anticancer activity against Homo sapiens (human) ACHN cells after 48 hr by SRB assay
# [27] = test system: HCT-116; experiment: Anticancer activity against Homo sapiens (human) HCT116 cells assessed as cell growth promotion at 10 uM after 48 hr by SRB assay
# [28] = test system: RPMI-8226; experiment: Anticancer activity against Homo sapiens (human) RPMI8226 cells assessed as cell growth promotion at 10 uM after 48 hr by SRB assay
# [29] = test system: SN12C; experiment: Anticancer activity against Homo sapiens (human) SN12C cells assessed as cell growth promotion at 10 uM after 48 hr by SRB assay
# [30] = test system: A498; experiment: Anticancer activity against Homo sapiens (human) A498 cells assessed as cell growth promotion at 10 uM after 48 hr by SRB assay
# [31] = test system: CAKI-1; experiment: Anticancer activity against Homo sapiens (human) CAKI-1 cells assessed as cell growth promotion at 10 uM after 48 hr by SRB assay
# [32] = test system: BT-549; experiment: Anticancer activity against Homo sapiens (human) BT549 cells after 48 hr by SRB assay; settings: BT-549, 48 h
# [33] = test system: SK-OV-3; experiment: Anticancer activity against Homo sapiens (human) SKOV3 cells after 48 hr by SRB assay; settings: SK-OV-3, 48 h
# [34] = test system: HCT-15; experiment: Anticancer activity against Homo sapiens (human) HCT15 cells assessed as cell growth promotion at 10 uM after 48 hr by SRB assay
# [35] = test system: KM12; experiment: Anticancer activity against Homo sapiens (human) KM12 cells after 48 hr by SRB assay; settings: KM12, 48 h
smiles,measurement,setting,value
Cc1ccc(Nn2c(SCC(=O)Nc3nc(-c4ccccc4)cs3)nc(C)c2C)cc1,GI50,[1],2970 nM
same,LC50 (50% lethal concentration),[1],> 100 µM
same,TGI,[1],86.8 µM
same,GI50,[2],4.59 µM
same,LC50 (concentration killing 50% of cells),[2],> 100 µM
same,TGI,[2],> 100 µM
same,Activity,[3],46.29%
same,GI50,[4],17.2 µM
same,LC50,[4],> 100 µM
same,TGI,[4],> 100 µM
same,Activity,[5],81.68%
same,Activity,[6],77.24%
same,Activity,[7],66.75%
same,Activity,[8],82.27%
same,GI50,[9],17.4 µM
same,LC50,[9],> 100 µM
same,TGI,[9],> 100 µM
same,Activity,[10],78.47%
same,GI50,[11],2120 nM
same,LC50,[11],> 100 µM
same,TGI,[11],9.29 µM
same,GI50,[12],3.15 µM
same,LC50,[12],> 100 µM
same,TGI,[12],> 100 µM
same,Activity,[13],49.68%
same,GI50,[14],3.32 µM
same,LC50 (50% lethal concentration),[14],> 100 µM
same,TGI,[14],19.3 µM
same,GI50,[15],3.7 µM
same,LC50,[15],> 100 µM
same,TGI,[15],48.6 µM
same,GI50,[16],18.4 µM
same,LC50,[16],> 100 µM
same,Activity,[17],82.85%
same,Activity,[18],55.49%
same,Activity,[19],39.38%
same,Activity,[20],51.82%
same,Activity,[21],78.13%
same,GI50,[22],2660 nM
same,LC50 (concentration killing 50% of cells),[22],> 100 µM
same,TGI,[22],9.54 µM
same,GI50,[23],18.9 µM
same,LC50 (50% lethal concentration),[23],> 100 µM
same,TGI,[23],> 100 µM
same,GI50,[24],3.34 µM
same,TGI,[24],> 100 µM
same,CC50,[24]; read-out: LC50 (the source's name),> 100 µM
same,Activity,[25],49.3%
same,GI50,[26],4.06 µM
same,LC50 (concentration killing 50% of cells),[26],> 100 µM
same,TGI,[26],62.9 µM
same,Activity,[27],40.22%
same,Activity,[28],55.78%
same,Activity,[29],64.31%
same,Activity,[30],92.54%
same,Activity,[31],53.6%
same,GI50,[32],3.18 µM
same,LC50,[32],94.7 µM
same,TGI,[32],14.1 µM
same,GI50,[33],10.6 µM
same,LC50 (50% lethal concentration),[33],> 100 µM
same,TGI,[33],> 100 µM
same,Activity,[34],67.18%
same,GI50,[35],4.13 µM
same,LC50 (concentration killing 50% of cells),[35],> 100 µM
same,TGI,[35],19.1 µM
